Several values for one entry are separate records, joined by “and”; a condition that tells them apart may be missing. Equal values may be shown once. Entries after “also recorded” stand apart in the source; their conditions may differ. Read-outs that look alike come from different tables or passages of the source.
Experiments:
SF-268 = test: NCI-60 screen, CNS Cancer SF-268; format: cell-based, human; details: for Growth of Cells (%): SF-268, 10^−5 M one dose
SK-OV-3 = test: NCI-60 screen, Ovarian Cancer SK-OV-3; format: cell-based, human; details: for Growth of Cells (%): SK-OV-3, 10^−5 M one dose
SR = test: NCI-60 screen, Leukemia SR; format: cell-based, human; details: for Growth of Cells (%): 10^−5 M one dose
DU-145 = test: NCI-60 screen, Prostate C. DU-145; format: cell-based; details: for Growth of Cells (%): DU-145, 10^−5 M one dose
HaCaT = test: MTT cell viability assay, HaCaT; format: cell-based, human; details: Homo sapiens; HaCaT normal cells, MTT, 72 h, mean ± SD
Procedure: Twelve compounds (2a-e, 3a-d and 4a-c) at a concentration range of 50–5000 μM were tested for their antiproliferative potential against four human cancer cell lines (A375—melanotic melanoma, C32—amelanotic melanoma, DU145—prostate cancer androgen-independent, MCF-7/WT—breast adenocarcinoma) and two normal cell lines: Chinese Hamster Ovary (CHO-K1) and immortalized human keratinocytes from histologically normal skin (HaCaT).
To determine the antiproliferative activity of newly synthesized compounds, the following cell lines were used: human melanotic melanoma cell line (A375), human amelanotic melanoma cell line (C32), human breast adenocarcinoma cell line (MCF-7/WT), human prostate cancer androgen-independent (DU145) and two normal cell lines: hamster ovarian (CHO-K1) and immortalized human keratinocytes from histologically normal skin (HaCaT). The cells were obtained from the cell line bank of the Department of Molecular and Cellular Biology, Wroclaw Medical University. A375, C32, MCF-7/WT, DU145 and HaCaT cells were grown in a monolayer cultured in Dulbecco’s Modified Eagle’s Medium (DMEM, Sigma-Aldrich, Poznań, Poland), supplemented with 10% of fetal bovine serum (FBS, Gibco, Paisley, UK) and 1% of antibiotics (penicillin/streptomycin, Sigma-Aldrich) and CHO-K1 were grown in HAM’s F-12 medium (Sigma-Aldrich), supplemented with 10% fetal bovine serum (FBS, Gibco) and 1% of antibiotics (penicillin/streptomycin, Sigma-Aldrich). Cell lines were cultured in the polystyrene flasks 25 or 75 cm^2 (Thermo Fisher Scientific, Waltham, MA, USA), which were stored in 37 °C and 5% CO2 in a humidified 95% atmosphere (SteriCult, Thermo Scientific, Alab). The cell medium was exchanged twice a week. The exponentially growing cells were used throughout the experiments. The cells were rinsed with phosphate-buffered saline (PBS, Sigma-Aldrich) and trypsinized by Trypsin-EDTA 0.25% solution (Sigma-Aldrich).
The influence of the compounds was performed in a monolayer culture on cancer and normal cells. Compounds were initially dissolved in DMSO; further dilutions of the compound were performed in Dulbecco’s Modified Eagle’s Medium supplemented with 10% FBS. Compounds were tested in a 50–5000 µM concentration range. In the in vitro experiments, the concentrations of DMSO in the final solution of the compounds were used 0.05%; 0.1%; 0.5%; 1%, respectively.
Cell viability was determined using the MTT colorimetric assay. All cell lines were seeded into 96-well plates to a density of 3 × 10^4 cells/well. After 24 h, the culture supernatants were removed and appropriate dilutions of compounds in the culture medium (200 µL/well) were added to the cells’ monolayer cultures and incubated for an additional 72 h. After 72 h of exposition to the compounds and the removal of the culture medium, cell viability was determined by reducing the yellow dye 3-(4,5-dimethyl-2-thiazol)-2,5-diphenyl-2H-tetrazolium bromide (MTT assay, Sigma Saint Louis, MO, USA; In Vitro Toxicology Assay) to a blue formazan product. The absorbance of the resulting solutions in three duplicate experiments was measured at the wavelength of 560 nm in a microplate reader (EnSpire, Perkin Elmer, Kraków, Poland). MTT assay is a colorimetric method that estimates the rate of metabolism in viable cells. Absorbance is directly proportional to the number of viable cells. All the experiments were performed three times and the mean absorbance values were calculated. The methodology for the evaluation of the growth of human cancer and normal cells was described previously. The cell viability in each group was expressed as a percentage of control (untreated) cells.

SNB-75 = test: NCI-60 screen, CNS Cancer SNB-75; format: cell-based, human; details: for Growth of Cells (%): SNB-75, 10^−5 M one dose
[1] = system: 60 human cancer cell lines; test: NCI-60 anticancer screen, full panel; format: cell-based; details: for activity in the one-dose assay (in words) / Mean Growth %: 10^−5 M one dose; for Mean Growth %: mean over the panel
TK-10 = test: NCI-60 screen, Renal Cancer TK-10; format: cell-based, human; details: for Growth of Cells (%): TK-10, 10^−5 M one dose
OVCAR-3 = test: NCI-60 screen, Ovarian Cancer OVCAR-3; format: cell-based, human; details: for Growth of Cells (%): OVCAR-3, 10^−5 M one dose
CAKI-1 = test: NCI-60 screen, Renal Cancer CAKI-1; format: cell-based, human; details: for Growth of Cells (%): CAKI-1, 10^−5 M one dose
ACHN = test: NCI-60 screen, Renal Cancer ACHN; format: cell-based, human; details: for Growth of Cells (%): 10^−5 M one dose
[2] = Homo sapiens, five doses 10^−4–10^−8 M
[3] = Homo sapiens, five doses 10^−4–10^−8 M, read-out: log LC50 (the source's name) (converted)
[4] = Homo sapiens, SNB-75, five doses 10^−4–10^−8 M
[5] = over the panel, values > −4.00 excluded

`O=c1[nH]c(C(F)(F)F)nc2c1sc(=S)n2-c1ccccc1` [Compound 2b, 3-phenyl-2-thioxo-5-(trifluoromethyl)-2,3-dihydro[1, 3]thiazolo[4,5-d]pyrimidin-7(6H)-one] was tested, and the “Growth of Cells (%)” value (SF-268) was 101.77%, the “Growth of Cells (%)” value (SK-OV-3) was 108.53% and the “Growth of Cells (%)” value (SR) was 105.93%. The “Growth of Cells (%)” value (DU-145) was 109.40%, the IC50 (HaCaT) was 712 ± 29.3 µM and the “Growth of Cells (%)” value (SNB-75) was 91.21%. For the same compound, the “activity in the one-dose assay (in words)” value (“activity” below) [1] was “insufficient activity”, the “Mean Growth %” value [1] was 103.88% and the “Growth of Cells (%)” value (TK-10) was 130.06%. The “Growth of Cells (%)” value (OVCAR-3) was 110.35%, the “Growth of Cells (%)” value (CAKI-1) was 124.11% and the “Growth of Cells (%)” value (ACHN) was 110.42%.

For `FC(F)(F)c1nc(Cl)c2sc(=S)n(-c3ccccc3)c2n1` [Compound 3b, 7-chloro-3-phenyl-5-(trifluoromethyl)[1, 3]thiazolo[4,5-d]pyrimidine-2(3H)-thione], the GI50 (SF-268; Homo sapiens, SF-268, five doses 10^−4–10^−8 M) was 1.78 µM, the CC50 (SF-268; Homo sapiens, SF-268, five doses 10^−4–10^−8 M, read-out: log LC50 (the source's name) (converted)) was 6.61 µM and the “Growth of Cells (%)” value (SF-268) was 84.73%. The GI50 (SK-OV-3; Homo sapiens, SK-OV-3, five doses 10^−4–10^−8 M) was 4.9 µM, the CC50 (SK-OV-3; Homo sapiens, SK-OV-3, five doses 10^−4–10^−8 M, read-out: log LC50 (the source's name) (converted)) was greater than 100 µM and the “Growth of Cells (%)” value (SK-OV-3) was 101.94%. The “log TGI” value (SK-OV-3; SK-OV-3, five doses 10^−4–10^−8 M) was −4.97 log M, the GI50 (SR; [2]) was 0.437 µM and the CC50 (SR; [3]) was greater than 100 µM. The “log TGI” value (SR; five doses 10^−4–10^−8 M) was −5.70 log M, the “Growth of Cells (%)” value (DU-145) was 9.04% and the “log TGI” value (DU-145; DU-145, five doses 10^−4–10^−8 M) was −5.46 log M. The GI50 (DU-145; Homo sapiens, DU-145, read-out: log GI50 (converted)) was 1.86 µM, the CC50 (DU-145; Homo sapiens, DU-145, five doses 10^−4–10^−8 M, read-out: log LC50 (the source's name) (converted)) was 6.46 µM and the IC50 (HaCaT) was 33.5 ± 0.7 µM. The GI50 (SNB-75; [4]) was 2 µM, the LC50 (SNB-75; [4]) was 8.91 µM and the “log TGI” value (SNB-75; SNB-75, five doses 10^−4–10^−8 M) was −5.38 log M. The “Mean Growth %” value [1] was 29.51%, the GI50 ([1]; Homo sapiens, five doses 10^−4–10^−8 M, mean graph midpoint over all tested cell lines, read-out: log GI50 Mean MG_MID (converted)) was 2.19 µM and the CC50 ([1]; Homo sapiens, five doses 10^−4–10^−8 M, mean graph midpoint over all tested cell lines, read-out: log LC50 Mean MG_MID (converted)) was 16.6 µM. For the same compound, the CC50 ([1]; Homo sapiens, one number printed for the pair, read-out: log LC50 MG_MID/Δ (converted)) was 16.6 µM, the “log TGI Mean MG_MID” value ([1]; five doses 10^−4–10^−8 M, mean graph midpoint over all tested cell lines) was −5.30 log M and −5.3 log M and the “N2: number of cell lines giving positive log TGI (≤−4.01)” value ([1]; of N = 58 tested cell lines) was 58. The “log GI50 Range” value [1, 5] was −4.86 to −6.69 log M, the “log LC50 Range” value [1, 5] was −4.03 to −5.82 log M and the “log TGI Range” value [1, 5] was −4.31 to −6.33 log M. For the same compound, the GI50 (TK-10; Homo sapiens, TK-10, five doses 10^−4–10^−8 M) was 2 µM, the CC50 (TK-10; Homo sapiens, TK-10, five doses 10^−4–10^−8 M, read-out: log LC50 (the source's name) (converted)) was 8.32 µM and the “Growth of Cells (%)” value (TK-10) was 51.24%. For the same compound, the “log TGI” value (TK-10; TK-10, five doses 10^−4–10^−8 M) was −5.39 log M, the GI50 (OVCAR-3; Homo sapiens, OVCAR-3, five doses 10^−4–10^−8 M) was 1.91 µM and the CC50 (OVCAR-3; Homo sapiens, OVCAR-3, five doses 10^−4–10^−8 M, read-out: log LC50 (the source's name) (converted)) was 6.03 µM. For the same compound, the “Growth of Cells (%)” value (OVCAR-3) was −41.27%, the “log TGI” value (OVCAR-3; OVCAR-3, five doses 10^−4–10^−8 M) was −5.47 log M and the “Growth of Cells (%)” value (CAKI-1) was 81.74%. The “log TGI” value (CAKI-1; CAKI-1, five doses 10^−4–10^−8 M) was −5.51 log M, the GI50 (CAKI-1; Homo sapiens, CAKI-1, five doses 10^−4–10^−8 M) was 1.66 µM and the CC50 (CAKI-1; Homo sapiens, CAKI-1, five doses 10^−4–10^−8 M, read-out: log LC50 (the source's name) (converted)) was 5.75 µM. The “Growth of Cells (%)” value (ACHN) was 27.40%, the GI50 (ACHN; [2]) was 1.74 µM and the CC50 (ACHN; [3]) was 6.31 µM. The “log TGI” value (ACHN; five doses 10^−4–10^−8 M) was −5.48 log M.

`CCNc1nc(C(F)(F)F)nc2c1sc(=S)n2-c1ccccc1` [Compound 4b, 7-(ethylamino)-3-phenyl-5-(trifluoromethyl)[1, 3]thiazolo[4,5-d]pyrimidine-2(3H)-thione] was tested, and the “Growth of Cells (%)” value (SF-268) was 104.72%, the “Growth of Cells (%)” value (SK-OV-3) was 101.70% and the “Growth of Cells (%)” value (SR) was 83.46%. The “Growth of Cells (%)” value (DU-145) was 101.28%, the IC50 (HaCaT) was 730 ± 31.1 µM and the “Growth of Cells (%)” value (SNB-75) was 99.24%. For the same compound, the “activity” value [1] was “insufficient activity; also recorded: inactive”, the “Mean Growth %” value [1] was 96.94% and the “Growth of Cells (%)” value (TK-10) was 88.79%. For the same compound, the “Growth of Cells (%)” value (OVCAR-3) was 106.99%, the “Growth of Cells (%)” value (CAKI-1) was 93.63% and the “Growth of Cells (%)” value (ACHN) was 93.13%.

In the case of `Fc1ccc(CNc2nc(C(F)(F)F)nc3c2sc(=S)n3-c2ccccc2)cc1` [Compound 4c], the “Growth of Cells (%)” value (SF-268) is reported as 109.32%, the “Growth of Cells (%)” value (SK-OV-3) is reported as 99.96% and the “Growth of Cells (%)” value (SR) is reported as 94.72%. The “Growth of Cells (%)” value (DU-145) was 122.63%, the IC50 (HaCaT) was 565 ± 24.7 µM and the “Growth of Cells (%)” value (SNB-75) was 103.11%. The “activity” value [1] was “insufficient activity; also recorded: inactive”, the “Mean Growth %” value [1] was 105.13% and the “Growth of Cells (%)” value (TK-10) was 130.70%. The “Growth of Cells (%)” value (OVCAR-3) was 111.62%, the “Growth of Cells (%)” value (CAKI-1) was 94.38% and the “Growth of Cells (%)” value (ACHN) was 99.14%.

— paper PMC8778818, “Synthesis, Structural Characterization and Anticancer Activity of New 5-Trifluoromethyl-2-thioxo-thiazolo[4,5-d]pyrimidine Derivatives” (Pharmaceuticals, 2022)
